Results: publication PMC9311059, “P‐Glycoprotein and Breast Cancer Resistance Protein Transporter Inhibition by Cyclosporine and Quinidine on the Pharmacokinetics of Oral Rimegepant in Healthy Subjects” (Clinical Pharmacology in Drug Development, 2022)
Values joined by “and” are separate entries in the source; they are usually repeats but may differ in a detail not shown here. Identical values can stand only once. Like-named read-outs stand apart in the source and are kept apart here.

Columns and labels:
[1] = Part 2: pharmacokinetics of rimegepant 75 mg ODT alone or coadministered with quinidine 600 mg, 2-way crossover; assay type: in vivo, human; conditions: for AUC / Cmax: po, 75 mg; for Tmax: read-out: tmax, median (range)
Description: This phase 1, open‐label, randomized, single‐dose, 2‐way crossover, 2‐part, drug‐drug interaction study was conducted at a single center (Syneos Health, Québec, Canada). Subjects were screened within 28 days preceding administration of study medication. In part 1, fasted subjects were randomly assigned to a single dose of rimegepant 75 mg ODT or a single dose of rimegepant 75 mg ODT coadministered with cyclosporine 200 mg (2 × 100‐mg capsules). […] Following the completion of part 1, an interim PK analysis and review of data were performed. […] In part 2, fasted subjects were randomly assigned to a single dose of rimegepant 75 mg ODT or a single dose of rimegepant 75 mg ODT coadministered with quinidine 600 mg (2 × 300‐mg tablets).
In part 1, subjects received 1 of the following treatments under fasting conditions: 1 oral dose of rimegepant 75 mg ODT (Catalent Pharma Solutions, Swindon, UK) or 1 oral dose of rimegepant 75 mg ODT coadministered with cyclosporine 200 mg (Novartis Pharmaceuticals Canada Inc., Dorval, Quebec, Canada). In part 2, subjects received 1 of the following treatments under fasting conditions: 1 oral dose of rimegepant 75 mg ODT alone or 1 oral dose of rimegepant 75 mg ODT coadministered with quinidine 600 mg (Sandoz Inc., West Princeton, New Jersey). In parts 1 and 2, the interval between treatments could not exceed 2 minutes.
For each treatment, subjects were confined from the morning of day −1 until after the 24‐hour postdose blood draw on day 2. Subjects returned for all subsequent blood draws. No food was allowed from at least 10 hours before dosing until at least 4 hours after dosing. Meals were standardized and similar in composition between periods. Except for water given with cyclosporine and quinidine, no fluids were allowed from 1 hour before dosing until 1 hour after dosing. Water was provided ad libitum at all other times. […] When appropriate, subjects were accompanied by a staff member while walking.
In each period, 20 blood samples for PK assessment were collected at the following time points: before dosing; 5, 10, 20, 30, 40, and 50 minutes after dosing; and 1, 1.5, 2, 2.5, 3, 4, 5, 6, 8, 12, 24 (day 2), 48 (day 3), and 72 (day 4) hours after dosing. […] Plasma samples were assayed for rimegepant using ultra‐performance liquid chromatography with tandem mass spectrometry detection (LC‐MS/MS). The quantifiable range was 10 to 5000 ng/mL. Plasma samples containing human ethylenediaminetetraacetic acid (EDTA) K2 plasma as an anticoagulant were processed using automated protein precipitation before LC‐MS/MS analysis. The internal standard was rimegepant‐^13C2d4. The validation was performed using an API 5000 LC/MS/MS system with Analyst software, version 1.6.3 (SCIEX, Framingham, Massachusetts). The pump flow was isocratic, with a flow rate set at 0.600 mL/min. The column was an Acquity UPLC BEH C18, 50×2.1 mm, 1.7 μm (Waters Corporation, Framingham, Massachusetts), which was maintained at a temperature of 60°C and contained Milli‐Q type water/acetonitrile with ammonium acetate and acetic acid. […] Incurred sample reanalysis was carried out on ≈10% of randomly selected samples.
The effects of cyclosporine (part 1) or quinidine (part 2) on the single‐dose PK of rimegepant were evaluated using general linear model procedures in SAS (SAS Institute, Cary, North Carolina). In these evaluations, analysis of variance (ANOVA) model was performed on untransformed tmax, terminal elimination rate constant, and t1/2el and on log‐transformed AUC0‐t, AUC0‐inf, and Cmax at the alpha level of .05. The model included treatment, sequence, and period as fixed effects, and subject nested within sequence as a random effect. Intra‐ and intersubject coefficient of variation were estimated.

[2] = cited from earlier work
[3] = parameters: method as in unpublished; conditions: rimegepant 75 mg with itraconazole 200 mg once daily for 7 consecutive days, healthy adults; ref unpublished; cited from earlier work
CYP2C9 = tested on: CYP2C9; parameters: method as in ref 7 = [7]; PMID 32058712; doi:10.1021/acs.jmedchem.9b01810; 7 Dubowchik GM , Conway CM , Xin AW . Blocking the CGRP pathway for acute and preventive treatment of migraine: the evolution of success . J Med Chem . 2020; 63 ( 13 ): 6600 ‐ 6623 . 32058712 10.1021; conditions: implicated in vitro; CYP2C9 allelic variation without significant influence; cited from earlier work
P‐gp = tested on: P‐gp; parameters: method as in ref 7 = [7]; PMID 32058712; doi:10.1021/acs.jmedchem.9b01810; 7 Dubowchik GM , Conway CM , Xin AW . Blocking the CGRP pathway for acute and preventive treatment of migraine: the evolution of success . J Med Chem . 2020; 63 ( 13 ): 6600 ‐ 6623 . 32058712 10.1021; conditions: in vitro; cited from earlier work
BCRP = tested on: BCRP; parameters: method as in ref 7 = [7]; PMID 32058712; doi:10.1021/acs.jmedchem.9b01810; 7 Dubowchik GM , Conway CM , Xin AW . Blocking the CGRP pathway for acute and preventive treatment of migraine: the evolution of success . J Med Chem . 2020; 63 ( 13 ): 6600 ‐ 6623 . 32058712 10.1021; conditions: in vitro; cited from earlier work
[4] = parameters: method as in PMID 23965396; conditions: single and 2‐week multiple daily oral doses up to 600 mg; cited from earlier work
[5] = Safety assessment (adverse events, ECG, vital signs, S-STS) in parts 1 and 2
Description: Safety was assessed using adverse events (AEs) that occurred from signing informed consent through 4 days after the last study drug administration, physical examination, body measurements, and the S‐STS. Safety was also assessed through vital signs (blood pressure, heart rate, respiratory rate, oral temperature), and electrocardiography. In part 2, cardiac telemetry was recorded continuously from ≈10 hours before dosing until 6 hours after dosing in each period (8 hours after dosing in subjects receiving quinidine with an increased QT interval at the 6‐hour assessment).
Safety laboratory assessments included a QuantiFERON‐TB test (Hilden, Germany); pregnancy tests (urine and serum); drug, alcohol, and cotinine screen; hematology; biochemistry; coagulation (in case of abnormal liver function tests); serology; and urinalysis.
Safety data were summarized but not subjected to inferential analysis.

[6] = by quinidine 600 mg, single dose rimegepant 75 mg ODT, vs rimegepant alone
[7] = coadministration with quinidine 600 mg, rimegepant 75 mg
[8] = parts 1 and 2, rimegepant alone or coadministered

N[C@@H]1c2cccnc2[C@H](OC(=O)N2CCC(n3c(=O)[nH]c4ncccc43)CC2)CC[C@H]1c1cccc(F)c1F [Rimegepant]
increase in rimegepant AUC0‐inf [1, 6]: 54.8% and 55% | increase in rimegepant Cmax [1, 6]: 66.9% and 67% | rimegepant AUC0‐inf geometric mean ratio (90% CI) versus rimegepant alone [1, 7]: 1.55 (1.40‐1.72) | rimegepant Cmax geometric mean ratio (90% CI) versus rimegepant alone [1, 7]: 1.67 (1.46‐1.91) | AUC ([1]; human, plasma, part 2, rimegepant 75 mg ODT alone, single oral dose, fasted, plasma, N = 12, read-out: AUC0‐inf, geometric least squares mean): 4410 ng·h/mL | AUC ([1]; human, plasma, part 2, rimegepant 75 mg ODT alone, single oral dose, fasted, plasma, N = 12, read-out: AUC0‐t, geometric least squares mean): 4400 ng·h/mL | Cmax ([1]; human, plasma, part 2, rimegepant 75 mg ODT alone, single oral dose, fasted, plasma, N = 12, read-out: Cmax, geometric least squares mean): 797 ng/mL | AUC ([1]; human, plasma, part 2, rimegepant ODT 75 mg alone, single oral dose, N 12, read-out: AUC0‐inf, arithmetic mean (percent coefficient of variation)): 4540 ng·h/mL | AUC ([1]; human, plasma, part 2, rimegepant ODT 75 mg alone, single oral dose, N 12, read-out: AUC0‐t, arithmetic mean (percent coefficient of variation)): 4520 ng·h/mL | Cmax ([1]; human, plasma, part 2, rimegepant ODT 75 mg alone, single oral dose, N 12, read-out: Cmax, arithmetic mean (percent coefficient of variation)): 829 ng/mL | Tmax ([1]; human, plasma, part 2, rimegepant ODT 75 mg alone, single oral dose, N 12): 1.5 h | half-life ([1]; human, plasma, part 2, rimegepant ODT 75 mg alone, single oral dose, N 12, read-out: t½el, arithmetic mean (percent coefficient of variation) (converted)): 514 min | Tmax ([1]; human, plasma, part 2, rimegepant ODT 75 mg coadministered with quinidine 600 mg, single oral dose, N 12): 2.8 h | CL/F, arithmetic mean (percent coefficient of variation) ([1]; part 2, rimegepant ODT 75 mg alone, single oral dose, N 12): 17.39 (24.68) L/h | difference in geometric mean t1/2el between treatments ([1]; part 2, rimegepant with quinidine vs rimegepant alone): ≤ 20% | absolute oral bioavailability ([2]; rimegepant ODT): ≈ 64% | median time to maximum plasma concentration (tmax) ([2]; sublingual administration of rimegepant ODT, fasting conditions): 1.5 h | increase in rimegepant AUC [3]: 400% | increase in rimegepant Cmax [3]: 40% | role of CYP2C9 in metabolism (CYP2C9): not to be a significant mediator of metabolism in vivo | substrate of P‐gp transporter (P‐gp): substrate | substrate of BCRP transporter (BCRP): substrate | tolerability [4]: well tolerated | subjects discontinued due to AEs ([5]; part 2, rimegepant group: sinus tachycardia, rimegepant‐quinidine group: false‐positive SARS‐CoV‐2 test): 1 subjects | nausea (TEAE), number of subjects ([5]; parts 1 and 2): 1 subjects | serious AEs [5, 8]: No serious AEs were reported | severity of TEAEs [5, 8]: mild or moderate | tolerability ([5]; single oral dose rimegepant 75 mg ODT alone or coadministered with cyclosporine or quinidine, parts 1 and 2): well tolerated and safe
